Source: ChEMBL document CHEMBL5724709, “EUbOPEN Chemogenomics Library - IncuCyte” (2024)
Values joined by “and” are separate entries in the source; they are usually repeats but may differ in a detail not shown here. Identical values can stand only once.

Columns and labels:
Assay type in all cases: toxicity, cell-based
HEK-293T = assay: Incucyte cell viability with HEK293T; settings: human, 24 h, 10 µM, compound concentration 10 uM
U2OS = assay: Incucyte cell viability with U2OS; settings: human, 24 h, 10 µM, compound concentration 10 uM
Fibroblast = assay: Incucyte cell viability with human fibroblast; settings: 24 h, 10 µM, compound concentration 10 uM
Note: unitless GR value; below 1 slowed growth and below 0 cell loss.

| Structure (SMILES) | Growth Rate (HEK-293T; replicate number 1) | Growth Rate (HEK-293T; replicate number 2) | Growth Rate (U2OS; replicate number 1) | Growth Rate (U2OS; replicate number 2) | Growth Rate (Fibroblast; replicate number 1) | Growth Rate (Fibroblast; replicate number 2) |
| --- | --- | --- | --- | --- | --- | --- |
| CC(C)n1nc(-c2cc3cc(O)ccc3[nH]2)c2c(N)ncnc21 | -0.17 | -0.09 | -0.49 | -0.01 | 0.59 | 0.98 |
| CC(=O)Nc1ccc(OC[C@](C)(O)C(=O)Nc2ccc([N+](=O)[O-])c(C(F)(F)F)c2)cc1 | 0.72 | 0.87 | 1 | 0.76 | 0.07 | 1 |
| Oc1ccc(-c2c(-c3ccccc3)nn3c(C(F)(F)F)cc(C(F)(F)F)nc23)cc1 | 1 | 0.97 | 1 | – | 1 | 0.27 |
| COc1ccc(N(C(=O)Oc2c(C)cccc2C)c2ccnc(Nc3ccc(N4CCN(C)CC4)cc3)n2)c(OC)c1 | 0.49 | 0.97 | 0.04 | 0.72 | 0.52 | 1 |
| CCN(CC)S(=O)(=O)c1cc(Nc2nccc(-c3ccnc(-c4ccc(NC(=O)NC)cc4)c3)n2)ccc1Cl | -0.42 | -0.23 | -0.05 | 0.12 | 0.14 | -0.71 |
| CC(C)N(CCCNC(=O)Nc1ccc(C(C)(C)C)cc1)C[C@H]1O[C@@H](n2ccc3c(N)ncnc32)[C@H](O)[C@@H]1O | 0.74 | 0.84 | 1 | 0.59 | 1 | – |
| O=C(COc1ccc(-c2oc3cc(O)c(C(=O)O)cc3c2C#Cc2cccc(Cl)c2)cc1)NC1CC1 | 0.87 | 0.84 | 0.39 | 0.84 | 0.84 | -0.06 |
| O=C(C=Cc1ccc(O)cc1)c1ccc(O)cc1O | 0.72 | 0.82 | 0.9 | 0.75 | 0.64 | 1 |
| Nc1c[nH]c(=O)c2cc(-c3ccccc3)sc12 | 0.88 | 0.73 | -0.48 | 0.33 | -0.61 | -0.86 |
| CCNC(=O)NCCSC[C@H]1O[C@@H](n2cnc3c(N)ncnc32)[C@H](O)[C@@H]1O | 0.71 | 0.87 | 1 | 0.72 | 0.65 | 0 |
| Cc1ncc(Cl)cc1NCc1ccc(C(=O)N[C@@H](CC2CCCC2)C(=O)NC2CC2)s1 | 0.59 | 0.85 | 0.37 | 0.86 | 0.64 | 0.26 |
| CCN(c1cc(C#CCN2CCOCC2)cc(C(=O)NCc2c(C)cc(C)[nH]c2=O)c1C)[C@H]1CC[C@H](N(C)CCOC)CC1 | 0.57 | 0.74 | 1 | 0.81 | 1 | – |
| CCCOc1ccc(CCc2nc3cc(-c4c(C)noc4C)ccc3n2CCN2CCOCC2)cc1 | 0.54 | 0.57 | 0.57 | 0.8 | 1 | 0.67 |
| Cc1ccc(C(=O)NCCCCCC(=O)Nc2ccccc2N)cc1 | 1 | – | – | 0.95 and 0.84 | – | – |
| O=C(NC[C@H](O)CN1CCc2ccccc2C1)c1cc(NC2COC2)ncn1 | 0.54 | 0.94 | 1 | – | 1 | 0.5 |
| O=c1[nH]ccc2cc(F)c(NS(=O)(=O)c3ccc(N4CC[C@@H](O)C4)s3)cc12 | 0.79 | 0.98 | 1 | 0.94 | 0.99 | 0.64 |
| CS(=O)(=O)c1ccc(-c2cnc(NCc3ccco3)n3cnnc23)cc1 | 0.63 | 0.95 | 1 | 0.66 | 1 | 0.87 |
| CC(=O)N1CCc2c(c(N3CCCc4cc(-c5cnn(C)c5)c(C(F)F)cc43)nn2C2CCOCC2)C1 | 0.61 | 0.51 | 1 | 0.89 | 0.79 | 1 |
